The source of these data is paper PMC7912796, “Design, Synthesis, Anticancer Activity, and Solid Lipid Nanoparticle Formulation of Indole- and Benzimidazole-Based Compounds as Pro-Apoptotic Agents Targeting Bcl-2 Protein” (Pharmaceuticals, 2021).

Holding throughout (assay type): cell-based, human
Assay [1] has as its system A549/lung adenocarcinoma cells. Description: MTT-cell proliferation assay. The following applies: Homo sapiens, A549, 48 h drug exposure, mean of three experiments ± SEM. The text has this:
(§1) The potential anti-cancer activity of all fourteen final synthesized compounds was investigated through MTT cytotoxic assay against two different human solid cancerous cell lines; A549/lung and MDA-MB-231/breast adenocarcinoma. The adopted cell-proliferation assay assessed % cell viability in relation to the reducing activity of cellular NADPH-dependent cellular oxidoreductases on tetrazolium dye, MTT [2,5-diphenyl-3-(4,5-dimethylthiazol-2-yl)tetrazolium bromide salt], for furnishing an easily quantified insoluble chromogenic formazan. For each drug concentration, 0.1, 1, 10, and 100 μM, the % cell-viability was estimated relative to negative control following a complete 48 h of drug treatment. Both 5-fluorouracil (5-FU) and doxorubicin (DOX) were set as positive index comparators. Moreover, the safety profile of the synthesized compounds was further investigated by examining their in-vitro cytotoxicity on non-cancerous cell line; MDCK/kidney cells.
(§2) Evaluating the cytotoxicity of tested compounds on two cancer cell lines (A549/lung and MDA-MB-231/breast adenocarcinoma) and non-cancerous (MDCK/kidney cells) was performed while adopting the formerly described method with small alterations. Cancer cell lines were propagated within Dulbecco’s Modified Eagle Medium-High Glucose (Cat.#: P0103; DMEM_High Glucose with Na.Pyruvate and stable Glutamine, Biowest^TM, Nuaillé, France), while MDA-MB-231 cells were propagated within RPMI-1640 L-Glutamine medium (Cat.#:12-604F; Lonza-Verviers SPRL^TM, Verviers, Belgium). The culturing media were supplemented via 1% antibiotic-antimycotic 100X (Cat.#: L0010; Biowest^TM, Nuaillé, France) and 10% fetal bovine serum (FBS) (Cat.#: EU-000-H; Seralab^TM, West Sussex, UK). Cells were seeded as triplicates within 96-well plate, at 1 × 10^4 cells per well density, after being counted and viability checked using the trypan blue staining solution (Cat.# ab233465; Abcam^TM, Cambridge, MA, USA). Seeded cells were permitted to adhere for 24 h under 5% CO2 and at 37 °C incubating conditions. The assigned compounds were dissolved in 500 µL DMSO affording the stock solution (100 mM) being ready for more diluting within the whole medium to obtain the compound’s final concentrations; 0.1, 1, 10, 100 µM for cell treatments. […] Following 24 h compound-cell treatment, the medium was substituted by fresh one and cells were permitted to develop for 48 h. At four hours prior the end of incubation, 10 μL MTT Sigma-Aldrich^TM (5 mg/mL in PBS 1X without magnesium and calcium; Cat.# 17-516F, Lonza-Verviers^TM, Basel, Switzerland) were added to all wells. Following the complete 48 h incubation, 100 μL DMSO was all added to all wells where they were subsequently centrifuged at 4000 rpm for 5 min allowing the formazan crystals of formazan to precipitate. Color was established and intensities were recorded at 490 nm using Synergy-Neo2® Hybrid MultiMode Plate Reader (BioTek^TM, Winooski, VT, USA), while subtracting the multi-well plates background absorbance at 690 nm. Percentage cell viability was estimated using the subsequent formula: % cell-viability = (average absorbance of treated wells/average absorbance of controls) × 100.

In assay [2] the test system is MDA-MB-231/breast cancer cells. Description: MTT-cell proliferation assay. The following applies: 48 h drug exposure, mean of three experiments ± SEM.
Description: as §1, §2

In assay [3] the test system is MDA-MB-231/breast cancer cell line. Description: Cell cycle analysis, propidium iodide flow cytometry. As to conditions: 13 µM, 48 h. The source says:
Using flow cytometry, apoptosis rate analysis was proceeded through staining the cell surface-translocating phosphatidylserine with Annexin-V fluorescent conjugate, the calcium-dependent phospholipid binding protein [32]. However, cell cycle analysis was achieved using propidium iodine fluorescent dye to stoichiometrically stain cell DNA contents allowing quantitation and identification of all cell phase rates; G0-G1, S, G2/M, and pre-G1 [33, 34]. […] For identifying the mode of cell death promoted by 8b within MDA-MB-231/breast cancer cells, apoptosis rate analysis was performed following 48 h exposure time. […] Moreover, the average proportion of Annexin-V stained positive cells (total apoptotic cells) elevated from 1.72% within untreated cells to 18.93% in treated ones (p < 0.001). […] The above provided findings are supported by the previous cell cycle analysis confirming the potentiality of 8b as promising anticancer agent.
Apoptotic assay and cell cycle analysis were proceeded according to previous literatures. […] Following incubation, MDA-MB-231 cells were trypsinized, harvested, and fixed according to information cited within Annexin® V-FITC Detection Kit (Cat.#: K101-25, BioVision^TM, Milpitas, CA, USA), for quantifying cell’s DNA contents being treated with 8b relative to control sample using propidium iodide stain (Cat.#: ab139418; Abcam^TM, Cambridge, MA, USA). […]

The test system of assay [4] is MDA-MB-231/breast cancer cells. Description: Morphological assessment. As to conditions: 0.1-100 µM, 48 h, phase-contrast microscope. How it is done:
The impact of 8b on cancerous cellular morphology was evaluated over different concentrations following 48 h exposure time. In MDA-MB-231/breast cancer cells, normal membrane integrity and control group nucleus morphology was depicted for cells within vehicle negative control group (Figure 4A). […] At 100 µM concentration, the cell number became highly declined and great loss of cellular polyhedral shape was observed as cells acquired the tentacled spindle-shaped morphology (Figure 4E). These morphological changes were more drastic with 8b as compared to 5-FU for similar concentrations (100 µM) (Figure 4F).
The impact of this tested final compounds on the morphology of treated MDA-MB-231/breast cancer cell line was investigated, through planting cells within 6-well plates and subsequently incubated with 0.1, 1, 10, 100 µM of 8b […]. Variations within the cells’ morphology were identified via Olympus®-CKX53 Inverted Metallurgical light microscope (Olympus^TM, Center Valley, PA, USA), snapped by Olympus® Digital Camera, and analyzed by OLYMPUS® Stream image analysis software.

For `CCCc1ccc(-c2nn(-c3ccccc3)cc2C=NNC(=O)c2cc3ccccc3[nH]2)cc1` [Compound 8b, N′-((1-phenyl-3-(4-propylphenyl)-1H-pyrazol-4-yl)methylene)-1H-indole-2-carbohydrazide], the IC50 in assay [1] is 23.1 ± 1.45 µM; in assay [2] it was 12.7 ± 2.48 µM; in assay [2] (Homo sapiens, MDA-MB-231, 48 h) it was around 13 µM. Also, in assay [3], the “cell population at pre-G1 stage” value is reported as 1.72%. The “cell population at G2/M stage” value in assay [3] (untreated 6.15%) was 25.32%. The cell morphology alterations result in assay [4] is “significant cell morphology alteration, intercellular space dilatation, and cellular shrinkage”.
